{
  "source": "patent US20210059963A1",
  "about": "“Beta-blockers for treating and/or preventing pathological scars” (GENEPRED BIOTECHNOLOGIES, priority 2017, published 2021)",
  "type_in_all_cases": "in vivo, human",
  "key": {"[1]": {"system": "patients with keloid scars", "assay": "Effect of propranolol on pain associated with keloids (patient report)", "excerpt": "(§1) During a clinical evaluation and treatment of subjects infected with Schistosoma mansoni in Uganda, the inventors used propranolol to lower portal blood pressure in subjects with severe liver disease (hepatic fibrosis) and splenomegaly. High portal blood pressure causes the development of oesophageal varices and variceal bleedings that are the principal cause of death in S.mansoni-infected subjects. Propranolol is currently used to reduce the risk of variceal bleedings because that drug has blocking effects on beta receptors of the nervous system, thus reducing portal pressure. Five to ten percent of the 5000 fishermen and fisher women of the study had haemorrhagic bleedings from oesophageal varices or were at risk of bleeding. In an attempt to reduce bleedings, propranolol was given to them by the oral route, one 40 mg pill per day. This molecule has little side effects and can be prescribed safely for very long periods excepted to asthmatic subjects and to patients with cardiac problems.\n(§2) During the study, one of the patients had mentioned that their keloid scars were not itching any more since they were treated for high portal pressure. This prompted the inventors to check whether this effect had also been noticed by other patients under the same treatment. The data presented here, have been obtained on 30 of these patients, they were collected from 30 out of 60 patients who had received this same treatment because of a high risk of variceal bleedings. The remaining 30 patients were not available, at that time, for evaluation of the propranolol effects.\n(§3) Keloid Grading: Patient keloid scars were classified as low, intermediate or high severity.\n(§4) Low severity corresponded to one or two scars on any part of the body, intermediate severity corresponded to various scars (including large cordons) on at least 3 different part of the body. Severe grades keloids combined extended large patches and many long and large scars on different part of the body.\n(§5) Statistical analysis was performed using the SPSS software. The effects of the treatment were tested with the nonparametric Wlcoxon test performed on paired data (before and after treatment). P values were calculated for a two sided test."}, "[2]": {"system": "patients with keloid scars", "assay": "Effect of propranolol on itching associated with keloids (patient report)", "excerpt": "as §1, §2, §3, §4, §5"}, "[3]": {"system": "patients with keloid scars", "assay": "Overall evaluation of the effect of the treatment on patient clinical conditions", "excerpt": "as §1, §2\nThe proposed answers were: a lot of improvement, much improvement, a little improvement and no improvement. […] Only one answer per patient was accepted. Forty four (44.8%) and twenty seven (27.6%) percent of the patients estimated that the treatment had improved either much or a lot their condition, respectively."}, "[4]": {"conditions": "Global 1 + 2, oral 40 mg per day"}, "[5]": {"conditions": "Pain Prior to Propranolol 1, oral 40 mg per day"}, "[6]": {"conditions": "Pain Prior to Propranolol 2, oral 40 mg per day"}, "[7]": {"conditions": "share of patients with this effect who had Pain Prior to Propranolol 1"}, "[8]": {"conditions": "share of patients with this effect who had Pain Prior to Propranolol 2"}, "[9]": {"conditions": "Global 1 + 2, 40 mg per day for 2 to 4 days, oral"}, "[10]": {"conditions": "Global 1 + 2, 40 mg per day for 2 to 4 days, oral, listed as propranol"}, "[11]": {"conditions": "Itching prior to Treatment 1, oral 40 mg per day"}, "[12]": {"conditions": "Itching prior to Treatment 2, oral 40 mg per day"}, "[13]": {"conditions": "share of patients with this effect who had Itching prior to Treatment 1"}, "[14]": {"conditions": "share of patients with this effect who had Itching prior to Treatment 2"}},
  "data": [
    {"compound": "CC(C)NCC(O)COc1cccc2ccccc12", "note": "(centres unmarked) [propranolol]", "values": [
      {"measurement": "study subjects reporting no effects of the treatment on keloid associated pain", "setting": "[1]", "result": 20, "unit": "%"},
      {"measurement": "study subjects reporting reduction of the pain", "setting": "[1]", "result": 56.7, "unit": "%"},
      {"measurement": "Effects of Propranolol on Pain: Total, % in 1 + 2", "setting": "[1]; [4]", "result": 29.2, "unit": "%"},
      {"measurement": "Effects of Propranolol on Pain: none, % in 1 + 2", "setting": "[1]; [4]", "result": 25.0, "unit": "%"},
      {"measurement": "Effects of Propranolol on Pain: partial, % in 1 + 2", "setting": "[1]; [4]", "result": 45.8, "unit": "%"},
      {"measurement": "Effects of Propranolol on Pain: Total, % in 1", "setting": "[1]; [5]", "result": 35.7, "unit": "%"},
      {"measurement": "Effects of Propranolol on Pain: none, % in 1", "setting": "[1]; [5]", "result": 28.6, "unit": "%"},
      {"measurement": "Effects of Propranolol on Pain: partial, % in 1", "setting": "[1]; [5]", "result": 35.7, "unit": "%"},
      {"measurement": "Effects of Propranolol on Pain: Total, % in 2", "setting": "[1]; [6]", "result": 20.0, "unit": "%"},
      {"measurement": "Effects of Propranolol on Pain: none, % in 2", "setting": "[1]; [6]", "result": 20.0, "unit": "%"},
      {"measurement": "Effects of Propranolol on Pain: partial, % in 2", "setting": "[1]; [6]", "result": 60.0, "unit": "%"},
      {"measurement": "study subjects reporting a total abolition of pain", "setting": "[1]; for at least 2 to 3 days", "result": 23.3, "unit": "%"},
      {"measurement": "effect of the treatment on pain as a function of keloid grades", "setting": "[1]; patients with all keloid grades (low, intermediate, high), FIG. 2", "result": "reduced"},
      {"measurement": "Effects of Propranolol on Pain: Total, % in none/partial/total", "setting": "[1]; [7]", "result": 71.4, "unit": "%"},
      {"measurement": "Effects of Propranolol on Pain: none, % in none/partial/total", "setting": "[1]; [7]", "result": 66.7, "unit": "%"},
      {"measurement": "Effects of Propranolol on Pain: partial, % in none/partial/total", "setting": "[1]; [7]", "result": 45.5, "unit": "%"},
      {"measurement": "Effects of Propranolol on Pain: Total, % in none/partial/total", "setting": "[1]; [8]", "result": 28.6, "unit": "%"},
      {"measurement": "Effects of Propranolol on Pain: none, % in none/partial/total", "setting": "[1]; [8]", "result": 33.3, "unit": "%"},
      {"measurement": "Effects of Propranolol on Pain: partial, % in none/partial/total", "setting": "[1]; [8]", "result": 54.5, "unit": "%"},
      {"measurement": "Effect of Propranolol on Itching: none, % in 1 + 2", "setting": "[2]; [9]", "result": 20.0, "unit": "%"},
      {"measurement": "Effect of Propranolol on Itching: partial (marked reduction), % in 1 + 2", "setting": "[2]; [9]", "result": 56.7, "unit": "%"},
      {"measurement": "Effect of Propranolol on Itching: total, % in 1 + 2", "setting": "[2]; [9]", "result": 23.3, "unit": "%"},
      {"measurement": "Effect of Propranolol on Itching: none, % in 1 + 2", "setting": "[2]; [10]", "result": "Twenty"},
      {"measurement": "Effect of Propranolol on Itching: total, % in 1 + 2", "setting": "[2]; [10]", "result": 23.6, "unit": "%"},
      {"measurement": "Effect of Propranolol on Itching: none, % in 1", "setting": "[2]; [11]", "result": 0.0, "unit": "%"},
      {"measurement": "Effect of Propranolol on Itching: partial, % in 1", "setting": "[2]; [11]", "result": 80.0, "unit": "%"},
      {"measurement": "Effect of Propranolol on Itching: total, % in 1", "setting": "[2]; [11]", "result": 20.0, "unit": "%"},
      {"measurement": "Effect of Propranolol on Itching: none, % in 2", "setting": "[2]; [12]", "result": 30.0, "unit": "%"},
      {"measurement": "Effect of Propranolol on Itching: partial, % in 2", "setting": "[2]; [12]", "result": 45.0, "unit": "%"},
      {"measurement": "Effect of Propranolol on Itching: total, % in 2", "setting": "[2]; [12]", "result": 25.0, "unit": "%"},
      {"measurement": "treated patients confirming that oral administration reduced keloid scar itching", "setting": "[2]; oral administration, 30 patients", "result": 80, "unit": "%"},
      {"measurement": "effect of the treatment on itching as a function of keloid grades", "setting": "[2]; patients with all keloid grades (low, intermediate, high), FIG. 1", "result": "reduced"},
      {"measurement": "Effect of Propranolol on Itching: none, % in none/partial/total", "setting": "[2]; [13]", "result": 0, "unit": "%"},
      {"measurement": "Effect of Propranolol on Itching: partial, % in none/partial/total", "setting": "[2]; [13]", "result": 47.1, "unit": "%"},
      {"measurement": "Effect of Propranolol on Itching: total, % in none/partial/total", "setting": "[2]; [13]", "result": 28.6, "unit": "%"},
      {"measurement": "Effect of Propranolol on Itching: none, % in none/partial/total", "setting": "[2]; [14]", "result": 100, "unit": "%"},
      {"measurement": "Effect of Propranolol on Itching: partial, % in none/partial/total", "setting": "[2]; [14]", "result": 52.9, "unit": "%"},
      {"measurement": "Effect of Propranolol on Itching: total, % in none/partial/total", "setting": "[2]; [14]", "result": 71.4, "unit": "%"},
      {"measurement": "patients estimating that the treatment had improved a lot their condition", "setting": "[3]; answer: a lot of improvement, FIG. 3", "result": 27.6, "unit": "%"},
      {"measurement": "patients estimating that the treatment had improved much their condition", "setting": "[3]; answer: much improvement, FIG. 3", "result": 44.8, "unit": "%"},
      {"measurement": "patients who felt that the treatment had clearly improved their clinical status", "setting": "[3]; total of much and a lot of improvement", "result": 72.4, "unit": "%"}
    ]}
  ]
}
